“Also recorded” adds a separate entry of the source.
How the values were obtained:
MX1 = MX1 (interferon-stimulated gene) mRNA expression in keratinocytes (qRT-PCR); format: cell-based, human; settings: all KO KCs treated, FIG. 7
Protocol: (§1) Immortalized keratinocyte cell line, N/TERT1, was used with permission for generation of knock-out (KO) cell lines using non-homologous end joining via CRISPR/Cas9. […] N/TERTs were grown in Keratinocyte-SFM medium (ThermoFisher #17005-042) supplemented with 30 μg/ml bovine pituitary extract, 0.2 ng/ml epidermal growth factor, and 0.3 mM calcium chloride (2).
(§2) CRISPR KO KCs were generated as previously described (3). In brief, Single-guide RNA (sgRNA) target sequence was developed using a web interface for CRISPR design (https://portals.broadinstitute.org/gpp/public/analysis-tools/sgrna-design). Synthetic sgRNA target sequences were inserted into a cloning backbone, pSpCas9 (BB)-2A-GFP (PX458) (Addgene plasmid #48138) and then cloned into competent E. coli (ThermoFisher #C737303). Proper insertion was validated by Sanger sequencing. […] Cells were then genotyped and analyzed by Sanger sequencing.
(§3) RNA extraction, qRT-PCR and RNA-Sequencing were performed following the protocol published earlier (3). […] We used STAR to align RNA-seq reads to the human genome, using annotations of GENCODE as gene model. HTSeq was used to quantify gene expression levels; normalization and differential expression analysis were performed by DESeq2.

IFNK = IFNK mRNA expression in keratinocytes (qRT-PCR); format: cell-based, human; settings: all KO KCs treated, FIG. 3B
Protocol: as §1, §2, §3

Nc1ncn([C@H]2C[C@H](O)[C@@H](CO)O2)c(=O)n1 [5-dAza-c]
MX1 mRNA expression in CRISPR-cas9 generated KO keratinocytes after demethylating agent (MX1): significant increase
IFNK mRNA expression in CRISPR-cas9 generated KO keratinocytes after demethylating agent (IFNK): Reversal; also recorded: significant increase
